The source of these data is patent US9637491B2, “Pyrazolo[4,3-D]pyrimidines as kinase inhibitors” (Origenis GmbH, priority 2012, dated 2017).

The test concerns the target T1, SYK kinase (Homo sapiens, UniProt P43405).
T1 construct: purchased Invitrogen, Carlsbad
In words: SYK assay (OMNIA Kinase Assay, Invitrogen). The class given is biochemical. Particulars: SYK Activities; 1 mM ATP, 10 μM Omnia Peptide Substrate Tyr 7, 30° C. In outline:
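SYK was added last to start phosphorylation of a chelation-enhanced SOX peptide substrate (10 μM) in the presence of 1 mM ATP and 0.2 mM DTT at 30° C. Kinetic readings at λex 360/λem 485 nm over 30 min gave velocities, fitted sigmoidally against compound concentration to give IC50.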
On to `c1nn(C2CC2)cc1Nc1nc(C2CC2)nc2cn[nH]c12` [Example 282, 5-cyclopropyl-N-(1-cyclopropyl-1H-pyrazol-4-yl)-1H-pyrazolo[4,3-d]pyrimidin-7-amine], for which the IC50 lay in the range of 10 to 100 nM.

For the compound `COCC(C)(C)n1cc(Nc2nc(C3CC3)nc3cn[nH]c23)cn1` [Example 283, 5-cyclopropyl-N-(1-(1-methoxy-2-methylpropan-2-yl)-1H-pyrazol-4-yl)-1H-pyrazolo[4,3-d]pyrimidin-7-amine], the IC50 lay in the range of 10 to 100 nM.

For `Cc1c(Nc2nc(C3CC3)nc3cn[nH]c23)cnn1C(C)C` [Example 287, 5-cyclopropyl-N-(1-isopropyl-5-methyl-1H-pyrazol-4-yl)-1H-pyrazolo[4,3-d]pyrimidin-7-amine], the IC50 lay in the range of 100 to 1000 nM.

For the compound `COCC(C)(C)n1cc(Nc2nc(-c3ccoc3)nc3cn[nH]c23)cn1` [Example 290, 5-(furan-3-yl)-N-(1-(1-methoxy-2-methylpropan-2-yl)-1H-pyrazol-4-yl)-1H-pyrazolo[4,3-d]pyrimidin-7-amine], the IC50 fell in the range of 100 to 1000 nM.

Take `CC(C)(C)N1CCC(n2cc(Nc3nc(-c4ccoc4)nc4cn[nH]c34)cn2)CC1` [Example 291, N-(1-(1-(tert-butyl)piperidin-4-yl)-1H-pyrazol-4-yl)-5-(furan-3-yl)-1H-pyrazolo[4,3-d]pyrimidin-7-amine]: the IC50 is under 10 nM.

Regarding `Cc1nn(C(C)C)cc1Nc1nc(-c2ccoc2)nc2cn[nH]c12` [Example 292, 5-(furan-3-yl)-N-(1-isopropyl-3-methyl-1H-pyrazol-4-yl)-1H-pyrazolo[4,3-d]pyrimidin-7-amine], the IC50 lay within 100 to 1000 nM.

`Cc1nn(C2CCOCC2)cc1Nc1nc(-c2ccoc2)nc2cn[nH]c12` [Example 294, 5-(furan-3-yl)-N-(3-methyl-1-(tetrahydro-2H-pyran-4-yl)-1H-pyrazol-4-yl)-1H-pyrazolo[4,3-d]pyrimidin-7-amine]: the IC50 was in the range of 100 to 1000 nM.

In the case of `Cc1c(Nc2nc(-c3ccoc3)nc3cn[nH]c23)cnn1C1CCOCC1` [Example 295, 5-(furan-3-yl)-N-(5-methyl-1-(tetrahydro-2H-pyran-4-yl)-1H-pyrazol-4-yl)-1H-pyrazolo[4,3-d]pyrimidin-7-amine], the IC50 is 100 to 1000 nM.

The compound `O=c1cc(Nc2nc(C3CC3)nc3cn[nH]c23)ccn1C1CC1` [Example 296, 1-cyclopropyl-4-((5-cyclopropyl-1H-pyrazolo[4,3-d]pyrimidin-7-yl)amino)pyridin-2(1H)-one] came in with an IC50 of 10 to 100 nM.

For the compound `CC(C)n1ncc(Nc2nc(C3CC3)nc3cn[nH]c23)c1Cl` [Example 297, N-(5-chloro-1-isopropyl-1H-pyrazol-4-yl)-5-cyclopropyl-1H-pyrazolo[4,3-d]pyrimidin-7-amine], the IC50 lay within 100 to 1000 nM.

In turn, `CC(C)n1ncc(Nc2nc(C3CCC3)nc3cn[nH]c23)c1Cl` [Example 312, N-(5-chloro-1-isopropyl-1H-pyrazol-4-yl)-5-cyclobutyl-1H-pyrazolo[4,3-d]pyrimidin-7-amine] yielded an IC50 of 100 to 1000 nM.

As for `COc1ccc(Nc2nc(-c3cccc(C(=O)Nc4ccc(-c5cnco5)cc4)c3)nc3cn[nH]c23)cc1OC` [Example 319, 3-(7-((3,4-dimethoxyphenyl)amino)-1H-pyrazolo[4,3-d]pyrimidin-5-yl)-N-(4-(oxazol-5-yl)phenyl)benzamide], the IC50 fell in the range of 100 to 1000 nM.

Consider `COc1ccc(Nc2nc(-c3cccc(C(=O)Nc4ccc(-c5ncco5)cc4)c3)nc3cn[nH]c23)cc1OC` [Example 321, 3-(7-((3,4-dimethoxyphenyl)amino)-1H-pyrazolo[4,3-d]pyrimidin-5-yl)-N-(4-(oxazol-2-yl)phenyl)benzamide], for which the IC50 lay within 100 to 1000 nM.

`Cc1c(Nc2nc(C3CCC3)nc3cn[nH]c23)cnn1C(C)C` [Example 325, 5-cyclobutyl-N-(1-isopropyl-5-methyl-1H-pyrazol-4-yl)-1H-pyrazolo[4,3-d]pyrimidin-7-amine]: the IC50 is 100 to 1000 nM.

On to `CC(C)(C)N1CCC(n2cc(Nc3nc(C4CC4)nc4cn[nH]c34)cn2)CC1` [Example 328, N-(1-(1-(tert-butyl)piperidin-4-yl)-1H-pyrazol-4-yl)-5-cyclopropyl-1H-pyrazolo[4,3-d]pyrimidin-7-amine], for which the IC50 is under 10 nM.

On to `FCCn1cc(Nc2nc(-c3ccoc3)nc3cn[nH]c23)cn1` [Example 361, N-(1-(2-fluoroethyl)-1H-pyrazol-4-yl)-5-(furan-3-yl)-1H-pyrazolo[4,3-d]pyrimidin-7-amine], for which the IC50 was 10 to 100 nM.

In turn, `FCCn1cc(Nc2nc(C3CC3)nc3cn[nH]c23)cn1` [Example 362, 5-cyclopropyl-N-(1-(2-fluoroethyl)-1H-pyrazol-4-yl)-1H-pyrazolo[4,3-d]pyrimidin-7-amine] gave an IC50 of 10 to 100 nM.

Turning to `FCCn1cc(Nc2nc(C3CCC3)nc3cn[nH]c23)cn1` [Example 363, 5-cyclobutyl-N-(1-(2-fluoroethyl)-1H-pyrazol-4-yl)-1H-pyrazolo[4,3-d]pyrimidin-7-amine], the IC50 lay within 10 to 100 nM.

Turning to `Clc1c(Nc2nc(C3CCC3)nc3cn[nH]c23)cnn1C1CCNCC1` [Example 364, N-(5-chloro-1-(piperidin-4-yl)-1H-pyrazol-4-yl)-5-cyclobutyl-1H-pyrazolo[4,3-d]pyrimidin-7-amine], the IC50 was in the range of 100 to 1000 nM.

The compound `FCCn1cc(Nc2nc(-c3ccco3)nc3cn[nH]c23)cn1` [Example 367, N-(1-(2-fluoroethyl)-1H-pyrazol-4-yl)-5-(furan-2-yl)-1H-pyrazolo[4,3-d]pyrimidin-7-amine] yielded an IC50 of 10 to 100 nM.

Regarding `CC(C)(O)Cn1cc(Nc2nc(-c3ccco3)nc3cn[nH]c23)cn1` [Example 369, 1-(4-((5-(furan-2-yl)-1H-pyrazolo[4,3-d]pyrimidin-7-yl)amino)-1H-pyrazol-1-yl)-2-methylpropan-2-ol], the IC50 is 100 to 1000 nM.

`FC(F)(F)Cn1cc(Nc2nc(C3CC3)nc3cn[nH]c23)cn1` [Example 374, 5-cyclopropyl-N-(1-(2,2,2-trifluoroethyl)-1H-pyrazol-4-yl)-1H-pyrazolo[4,3-d]pyrimidin-7-amine] yielded an IC50 of 10 to 100 nM.

Regarding `FC(F)(F)Cn1cc(Nc2nc(-c3ccoc3)nc3cn[nH]c23)cn1` [Example 375, 5-(furan-3-yl)-N-(1-(2,2,2-trifluoroethyl)-1H-pyrazol-4-yl)-1H-pyrazolo[4,3-d]pyrimidin-7-amine], the IC50 lay within 100 to 1000 nM.

`FC(F)(F)Cn1cc(Nc2nc(-c3ccco3)nc3cn[nH]c23)cn1` [Example 377, 5-(furan-2-yl)-N-(1-(2,2,2-trifluoroethyl)-1H-pyrazol-4-yl)-1H-pyrazolo[4,3-d]pyrimidin-7-amine] displayed an IC50 of 10 to 100 nM.

Turning to `CC(C)Cn1cc(-c2nc(Nc3ccc(N4CCOCC4)cc3)c3[nH]ncc3n2)cn1` [Example 383, 5-(1-isobutyl-1H-pyrazol-4-yl)-N-(4-morpholinophenyl)-1H-pyrazolo[4,3-d]pyrimidin-7-amine], the IC50 lay within 100 to 1000 nM.

`CCCc1nc(Nc2ccc(N3CCOCC3)cc2)c2[nH]ncc2n1` [Example 386, N-(4-morpholinophenyl)-5-propyl-1H-pyrazolo[4,3-d]pyrimidin-7-amine] returned an IC50 of 100 to 1000 nM.

As for `COc1ccc(Nc2nc(C3CCCCCC3)nc3cn[nH]c23)cc1OC` [Example 388, 5-cycloheptyl-N-(3,4-dimethoxyphenyl)-1H-pyrazolo[4,3-d]pyrimidin-7-amine], the IC50 is 100 to 1000 nM.

Turning to `COCCn1cc(-c2nc(Nc3ccc(N4CCOCC4)cc3)c3[nH]ncc3n2)cn1` [Example 393, 5-(1-(2-methoxyethyl)-1H-pyrazol-4-yl)-N-(4-morpholinophenyl)-1H-pyrazolo[4,3-d]pyrimidin-7-amine], the IC50 was 100 to 1000 nM.

As to `c1cc(N2CCOCC2)ccc1Nc1nc(-c2cn[nH]c2)nc2cn[nH]c12` [Example 394, N-(4-morpholinophenyl)-5-(1H-pyrazol-4-yl)-1H-pyrazolo[4,3-d]pyrimidin-7-amine], the IC50 lay in the range of 10 to 100 nM.

As to `COCCn1ncc(Nc2nc(-c3ccco3)nc3cn[nH]c23)c1F` [Example 403, N-(5-fluoro-1-(2-methoxyethyl)-1H-pyrazol-4-yl)-5-(furan-2-yl)-1H-pyrazolo[4,3-d]pyrimidin-7-amine], the IC50 lay in the range of 100 to 1000 nM.

`COCCn1ncc(Nc2nc(-c3ccco3)nc3cn[nH]c23)c1N(C)C` [Example 404, N4-(5-(furan-2-yl)-1H-pyrazolo[4,3-d]pyrimidin-7-yl)-1-(2-methoxyethyl)-N5,N5-dimethyl-1H-pyrazole-4,5-diamine] gave an IC50 of 100 to 1000 nM.

Compound `COc1cccc(-c2nc(Nc3cnn(C4CC4)c3)c3[nH]ncc3n2)c1` [Example 406, N-(1-cyclopropyl-1H-pyrazol-4-yl)-5-(3-methoxyphenyl)-1H-pyrazolo[4,3-d]pyrimidin-7-amine] gave an IC50 of 100 to 1000 nM.

`COc1cccc(-c2nc(Nc3cnn(C4CCN(C(C)(C)C)CC4)c3)c3[nH]ncc3n2)c1` [Example 407, N-(1-(1-(tert-butyl)piperidin-4-yl)-1H-pyrazol-4-yl)-5-(3-methoxyphenyl)-1H-pyrazolo[4,3-d]pyrimidin-7-amine]: the IC50 fell in the range of 10 to 100 nM.

Turning to `COCCCn1cc(Nc2nc(-c3cccc(OC)c3)nc3cn[nH]c23)cn1` [Example 408, 5-(3-methoxyphenyl)-N-(1-(3-methoxypropyl)-1H-pyrazol-4-yl)-1H-pyrazolo[4,3-d]pyrimidin-7-amine], the IC50 lay in the range of 10 to 100 nM.

Compound `COc1cccc(-c2nc(Nc3cnn(C4CCOCC4)c3)c3[nH]ncc3n2)c1` [Example 409, 5-(3-methoxyphenyl)-N-(1-(tetrahydro-2H-pyran-4-yl)-1H-pyrazol-4-yl)-1H-pyrazolo[4,3-d]pyrimidin-7-amine] registered an IC50 of 10 to 100 nM.

`c1ccc2sc(-c3nc(Nc4cnn(C5CC5)c4)c4[nH]ncc4n3)nc2c1` [Example 410, 5-(benzo[d]thiazol-2-yl)-N-(1-cyclopropyl-1H-pyrazol-4-yl)-1H-pyrazolo[4,3-d]pyrimidin-7-amine] returned an IC50 of under 10 nM.

A word on the IC50: it is the concentration that inhibits the measured activity by half. Low values mean greater potency in that assay, high ones weaker potency in that assay.
